6 compounds from ChEMBL document CHEMBL4619816, “GSK973 Is an Inhibitor of the Second Bromodomains (BD2s) of the Bromodomain and Extra-Terminal (BET) Family” (ACS Med Chem Lett, 2020) can be followed below.

Where only a bound is given, the exact number is not on record here.

System in one data set: not listed separately
Nature of the data set: Clearance in human pooled hepatocytes assessed as per gram tissue at 0.5 uM by LC-MS/MS analysis. Type of data set: ADME, cell-based, Hepatocyte.
On to `CNC(=O)c1cc(C(=O)N[C@H]2C[C@H](O)C2)cc2c1O[C@H](CF)[C@H]2c1ccccc1`, for which the CLH is under 0.45 mL/min/g.

The target of the next data set is Bromodomain-containing protein 4 (Homo sapiens, UniProt O60885, Y97A). Nature of the data set: Displacement of Alexa Fluor 647 labelled ligand from His6-tagged BRD4 BD2 (1 to 477 residues)/BD1 Y97A mutant (unknown origin) after 30 mins by TR-FRET assay. (Time-resolved FRET reads energy transfer from a long-lived donor to a nearby acceptor.)
Regarding `CNC(=O)c1cc(C(N)=O)cc2c1O[C@H](C)[C@H]2c1ccccc1`, the half-inhibitory concentration (IC50) was 100 nM.
Same read-out and setting: to `CNC(=O)c1cc(C(=O)NCCOC)cc2c1O[C@H](C)[C@H]2c1ccccc1` belongs 200 nM.
For the compound `CCNC(=O)c1cc(C(=O)NC)c2c(c1)[C@H](c1ccccc1)[C@@H](C)O2`, the IC50 is 39.8 nM.
Compound `CNC(=O)c1cc(C(=O)NC)c2c(c1)[C@H](c1ccccc1)[C@@H](C)O2` had an IC50 of 31.6 nM.
On the same count and under the same terms, in the case of `CNC(=O)c1cccc2c1O[C@H](C)[C@H]2c1ccccc1` (single isomer, unassigned) it was 794 nM; in that of `CNC(=O)c1cc(C(=O)N[C@H]2C[C@H](O)C2)cc2c1O[C@H](CF)[C@H]2c1ccccc1`, 79.4 nM.

System in another data set: not listed separately
Nature of the data set: Chromatographic hydrophobicity index, log D of the compound in pH 7.4 ammonium acetate buffer/acetonitrile gradient by HPLC analysis. Type of data set: physicochemical.
In the case of `CNC(=O)c1cc(C(N)=O)cc2c1O[C@H](C)[C@H]2c1ccccc1`, the CHI was determined as 3.28.
In the case of `CNC(=O)c1cc(C(=O)NCCOC)cc2c1O[C@H](C)[C@H]2c1ccccc1`, the CHI is recorded as 3.81.
In turn, `CCNC(=O)c1cc(C(=O)NC)c2c(c1)[C@H](c1ccccc1)[C@@H](C)O2` yielded a CHI of 4.11.
`CNC(=O)c1cc(C(=O)NC)c2c(c1)[C@H](c1ccccc1)[C@@H](C)O2` gave a CHI of 3.55.
Consider `CNC(=O)c1cc(C(=O)N[C@H]2C[C@H](O)C2)cc2c1O[C@H](CF)[C@H]2c1ccccc1`, for which the CHI was found to be 2.92.

System in another data set: not listed separately
Nature of the data set: Clearance in Wistar Han rat hepatocytes assessed as per gram tissue at 0.5 uM by LC-MS/MS analysis. The data set is classed as ADME, cell-based, Hepatocyte.
`CNC(=O)c1cc(C(=O)N[C@H]2C[C@H](O)C2)cc2c1O[C@H](CF)[C@H]2c1ccccc1`: the CLH was found to be 1.84 mL/min/g.

For another data set, the system named is Bromodomain-containing protein 4 (Homo sapiens), O60885 [UNDEFINED MUTATION]. Nature of the data set: Selectivity index, ratio of IC50 for displacement of Alexa Fluor 647 labelled ligand from His6-tagged BRD4 BD1 (1 to 477 residues)/BD2 Y390A mutant (unknown origin) to IC50 for displacement of Alexa Fluor 647 labelled ligand from His6-tagged BRD4 BD2 (1 to 477 residues)/BD1 Y97A mutant (unknown origin).
In the case of `CNC(=O)c1cc(C(N)=O)cc2c1O[C@H](C)[C@H]2c1ccccc1`, the Ratio IC50 came out at 160.
On the same count and under the same terms, in the case of `CNC(=O)c1cc(C(=O)NCCOC)cc2c1O[C@H](C)[C@H]2c1ccccc1` it was 200; in that of `CCNC(=O)c1cc(C(=O)NC)c2c(c1)[C@H](c1ccccc1)[C@@H](C)O2`, 1000; in that of `CNC(=O)c1cc(C(=O)NC)c2c(c1)[C@H](c1ccccc1)[C@@H](C)O2`, 400.
On the same count and under the same terms, in the case of `CNC(=O)c1cccc2c1O[C@H](C)[C@H]2c1ccccc1` (single isomer, unassigned) it was 25.
Still for that read-out and setting: in the case of `CNC(=O)c1cc(C(=O)N[C@H]2C[C@H](O)C2)cc2c1O[C@H](CF)[C@H]2c1ccccc1` it was 400.

A further data set concerns Blood. Nature of the data set: Inhibition of LPS-induced MCP1 production in human whole blood preincubated for 30 mins followed by LPS addition measured after 24 hrs by immuno assay. The data set is classed as functional, tissue-based.
`CNC(=O)c1cc(C(=O)N[C@H]2C[C@H](O)C2)cc2c1O[C@H](CF)[C@H]2c1ccccc1` showed an IC50 of 316 nM.

In a further data set the target is Bromodomain-containing protein 4 (Homo sapiens, UniProt O60885, Y390A). Nature of the data set: Displacement of Alexa Fluor 647 labelled ligand from His6-tagged BRD4 BD1 (1 to 477 residues)/BD2 Y390A mutant (unknown origin) after 30 mins by TR-FRET assay.
Consider `CNC(=O)c1cc(C(N)=O)cc2c1O[C@H](C)[C@H]2c1ccccc1`, for which the IC50 is 15800 nM. That is a double-digit micromolar value.
On the same count and under the same terms, to `CNC(=O)c1cc(C(=O)NCCOC)cc2c1O[C@H](C)[C@H]2c1ccccc1` belongs 39800 nM; to `CCNC(=O)c1cc(C(=O)NC)c2c(c1)[C@H](c1ccccc1)[C@@H](C)O2`, 39800 nM.
On the same count and under the same terms, in the case of `CNC(=O)c1cc(C(=O)NC)c2c(c1)[C@H](c1ccccc1)[C@@H](C)O2` it was 12600 nM; in that of `CNC(=O)c1cc(C(=O)N[C@H]2C[C@H](O)C2)cc2c1O[C@H](CF)[C@H]2c1ccccc1`, 31600 nM.

The IC50 is the concentration that inhibits the measured activity by half. Read a low IC50 as greater potency in that assay.
